According to ChEMBL document CHEMBL6078613, “Cathepsin B: The dawn of tumor therapy” (Eur J Med Chem, 2024):
Where a SMILES comes first, the peptide text is derived from it. The star is where a group is joined. Cbz = O=C(OCc1ccccc1)*; CH2F = FC*

Experiments:
Cathepsin B [1] = biological target: T1, Cathepsin B (Homo sapiens, UniProt P07858); assay: Inhibition of Cathepsin B (unknown origin) at 10 uM relative to control
Cathepsin B [2] = biological target: T1, Cathepsin B; assay: Inhibition of Cathepsin B (unknown origin)
[3] = Inhibition of Cathepsin B-like cysteine protease (unknown origin); set-up: species or system Homo sapiens

In the case of `CCOC(=O)[C@H]1O[C@@H]1C(=O)N[C@@H](CC(C)C)C(=O)NCCC(C)C`, the inhibition (Cathepsin B [1]) is reported as 91%.
Compound `COC(=O)CC[C@H](NC(=O)[C@H](Cc1c[nH]c2ccccc12)NC(=O)OCc1ccccc1)C(=O)N[C@@H](Cc1cnc[nH]1)C(=O)N[C@@H](CC(=O)OC)C(=O)CF` (Cbz-WE(OMe)HD(OMe)-CH2F) has an IC50 (Cathepsin B [2]) of 6 µM.
In the case of `CC(C)C[C@H](NC(=O)[C@H]1O[C@@H]1C(=O)O)C(=O)NCCCCN=C(N)N` [E-64], the IC50 [3] is reported as 0.009 µM.
